Test results as given in patent US10258580B2, “Cannabinoids for use in the treatment of neurodegenerative diseases or disorders” (priority 2011, dated 2019).

Experiments:
Aβ-stimulated C6 cells [1] = test: Nitrite (NO) production in Aβ-stimulated C6 cells, Griess reaction; assay type: cell-based; conditions: Aβ (1-42) 1 μg/mL, 24 hours; cannabinoid 10^−9 to 10^−6 M
Description: (§1) The cannabinoids tested were CBG, CBC, and CBDV. The cannabinoids were isolated from cannabis plant material and purified. The cannabinoids were tested at a concentration of 10^−9 to 10^−6 M. The cannabinoids were dissolved in DMSO at the concentration of 10^−2M and then diluted in DMEM to their final concentration.
(§2) Glial cells (C6) were cultured in 10% FBS supplemented DMEM. PC12 neuronal cell were cultured in 10% FBS plus 5% HS supplemented DMEM and SHY-5SY neuronal cells were cultured in 10% FBS supplemented RPMI. Neuronal cells were differentiated with retinoic acid. After 24 hours of starvation glial cells, differentiated PC12 and SHY-5SY neuronal cells were treated with the cannabinoids, CBC, CBG and CBDV, in the presence or absence of 1 μg/mL of Aβ (1-42) for the following 24 hours.
Production of NO was assayed by measuring the amount of nitrite in the culture medium of C6 cells 24 hours after Aβ(1-42) (1 μg/mL) stimulation using a spectrophotometric assay based on Griess reaction.

Aβ-stimulated C6 cells [2] = test: Aβ-stimulated C6 cell viability/proliferation, MTT assay; assay type: cell-based; conditions: Aβ (1-42) 1 μg/mL, 24 hours
Description: as §1, §2
(§3) Cell viability was determined using 3(4,5-dimethylthiazol-2yl)2,5-diphenyl-2H-tetrazolium bromide (MTT) assay which is an assay based on the ability of viable cells to convert MTT in formazan salt.
(§4) The cells were plated in 96-well culture plates at the density of 5×10^3 cells/well and allowed to adhere at 37° C. for 2 hours. Thereafter, the medium was replaced with fresh medium and the cells were treated as above described. After 24 hours 25 μl MTT (5 mg/ml in DMEM) was added to the cells and incubated for additional 3 hours at 37° C. After this time, the cells were lysed and the dark blue crystals solubilized with 125 μl of a solution containing 50% (v/v) N,N, dimethylformamide, 20% (w/v) sodium dodecylsulphate, with an adjusted pH of 4.5. The optical density of each well was measured with a microplate spectrophotometer (Titertek Multiscan MCC/340) equipped with a 620 nm filter.

SH-SY5Y cells [3] = test: Aβ-induced SH-SY5Y cell viability, MTT assay (Example 1); assay type: cell-based, human; conditions: Aβ (1-42) 1 μg/mL
Description: as §1, §2, §3, §4

SH-SY5Y cells [4] = test: Aβ-induced SH-SY5Y cell viability, MTT/formazan test (Example 2); assay type: cell-based, human; conditions: Aβ (1-42) 1 μg/mL, 24 hours; 10^−7 M
Description: (§5) Glial cells (C6) were cultured in 10% FBS supplemented DMEM, and SHY-5SY were cultured in 10% FBS supplemented RPMI. Neuronal cells were differentiated with retinoic acid. After 24 hours of starvation glial cells and SHY-5SY were treated with CBDV (10^−7M), CBD (10^−7 M), CBDVA (10^−7 M), CBDA (10^−7 M) and THCVA (10^−7 M) in presence or absence of Aβ (1-42) (1 μg/mL) for following 24 hours.
as §4, with “Cell activation/viability was determined using 3(4,5-dimethylthiazol-2yl)2,5-diphenyl-2H-tetrazolium bromide (MTT) assay, an assay based on the ability of viable cells to convert MTT in formazan salt. Briefly, the cells” for “The cells”

SH-SY5Y cells [5] = test: Aβ-induced SH-SY5Y viable cell number, cell counting by TC10 System; assay type: cell-based, human; conditions: Aβ (1-42) 1 μg/mL, 24 hours; 10^−7 M
Description: as §5
In another set of experiments cell counting was performed by TC10 System (BIO-RAD), according to manufacturing instruction.

[6] = test system: neuronal cultures exposed to glutamate; conditions: in vitro, pure/synthetic preparations; cited from earlier work
[7] = in vivo, pure CBD; cited from earlier work
iNOS [8] = test: iNOS mRNA level in Aβ-stimulated C6 cells, semi-quantitative RT-PCR; assay type: cell-based; conditions: Aβ (1-42) 1 μg/mL, 24 hours; 10^−7 M
Description: as §2
The mRNA level of iNOS in C6 cells was determined using the semi-quantitative RT-PCR method. The PCR-primers were selected according to appropriate DNA sequences. 15 μl aliquots of PCR products were electrophoretically fractionated through 1% agarose gel containing the fluorescent Vistra green dye. Labelling intensity of the PCR product, which is linear to the amount of DNA, was quantified using the Molecular Imager FX and Quantity One software (Biorad, Milan, Italy).

TNF-alpha [9] = test: TNF-alpha protein expression in Aβ-stimulated C6 cells, western blot; assay type: cell-based; conditions: Aβ (1-42) 1 μg/mL, 24 hours, 10^−7 M
Description: as §5
(§6) Western blot analysis was performed on C6 and SHY-5SY cell lysate. Briefly cells were rapidly homogenized in 60 μl of ice-cold hypotonic lysis buffer [10 mM HEPES, 1.5 mM MgCl2, 10 mM KCl, 0.5 mM phenylmethylsulfonyl fluoride, 1.5 μg/mL soybean trypsin inhibitor, pepstatin A 7 μg/mL, leupeptin 5 μg/mL, 0.1 mM benzamidine, 0.5 mM dithiothreitol (DTT)]. After this time, the cytoplasmic fractions were then obtained by centrifugation at 13000 g for 10 min and protein concentration in the samples was determined with Bio-Rad assay kit according to the manufacturer's instructions. Immunoblotting analysis of iNOS, COX-2, TNF-a, Bcl2 and actin were performed on a cytosolic fraction. Protein concentration was determined and equivalent amounts (50 μg) of each sample were separated under reducing conditions in 12% SDS-polyacrylamide minigel. […] The protein bands were scanned and densitometrically analyzed with a GS-800 imaging densitometer (Bio-Rad Laboratories, Calif., USA).

COX2 = COX2 protein expression in Aβ-stimulated C6 cells, western blot; assay type: cell-based; conditions: Aβ (1-42) 1 μg/mL, 24 hours, 10^−7 M
Description: as §5, §6

iNOS [10] = test: iNOS protein expression in Aβ-stimulated C6 cells, western blot; assay type: cell-based; conditions: Aβ (1-42) 1 μg/mL, 24 hours, 10^−7 M
Description: as §5, §6

TNF-alpha [11] = test: TNF-alpha release in supernatant of Aβ-treated C6 cells, ELISA; assay type: cell-based; conditions: Aβ (1-42) 1 μg/mL, 24 hours, 10^−7 M
Description: as §5
ELISA essay was performed on supernatants of cultured cells. Nunc Maxisorp 96-well microtiter plates (Gibco, Paisley, UK) were coated overnight at 4° C. with 1 μg/well of specific monoclonal antibody anti-TNF, diluted in 0.5 M Na2CO3. The wells were washed three times and then blocked with phosphate-buffered saline (PBS) containing 0.05% (v/v) Tween 20 and 0.3% Fetal Bovine Serum (ELISA buffer) for 30 min at room temperature. The standards and samples were added in a 100-μl volume and incubated at 37° C. for 1.5 h. The standard curve was generated using 0.1 ng to 1 μg/well of purified protein, diluted in ELISA buffer. Following four washes in ELISA buffer, monoclonal antibodies were diluted and added to the wells for 1 h. […] The colour reaction was stopped by addition of HCl and optical densities at 490 nm were measured using a microplate reader.

Bcl2 = Bcl2 protein expression in Aβ-treated SH-SY5Y cells, western blot; assay type: cell-based, human; conditions: Aβ (1-42) 1 μg/mL, 24 hours, 10^−7 M
Description: as §5, §6

**Q.** What does the source list for `CCCCCc1cc(O)c2c(c1)OC(C)(CCC=C(C)C)C=C2` (stereo not shown) [CBC, cannabichromene]?
**A.** nitrite production in Aβ-stimulated C6 cells (Aβ-stimulated C6 cells [1]): significantly reduced; Aβ-stimulated C6 cell viability (cell proliferation, MTT) (Aβ-stimulated C6 cells [2]; 10^−7 to 10^−6 M): significantly inhibited cell proliferation; Aβ-induced SH-SY5Y cell death (cell viability, MTT) (SH-SY5Y cells [3]; 10^−6 M (highest concentration used)): effective only at the highest concentration used

**Q.** Which “Aβ SH-SY5Y cell death (viability, MTT/formazan test)” value (SH-SY5Y cells [4]) does the source give for `C=C(C)[C@@H]1CCC(C)=C[C@H]1c1c(O)cc(CCCCC)cc1O` [CBD, cannabidiol] here?
**A.** able to prevent

**Q.** What about the “Aβ induced SH-SY5Y cell death (viable cell number, cell counting)” value (“Aβ induced SH-SY5Y cell death” for short) (SH-SY5Y cells [5]) of the same molecule?
**A.** able to prevent

**Q.** What about the “prevention of glutamate toxicity” value [6] of the same molecule?
**A.** could be prevented to some extent

**Q.** What about the “difference between treated and placebo treated animals” value [7] of the same molecule?
**A.** failed to find a difference

**Q.** What does the source list for `C=C(C)[C@@H]1CCC(C)=C[C@H]1c1c(O)cc(CCCCC)c(C(=O)O)c1O` [CBDA]?
**A.** Aβ SH-SY5Y cell death (viability, MTT/formazan test) (SH-SY5Y cells [4]): had no effect; Aβ induced SH-SY5Y cell death (viable cell number, cell counting) (SH-SY5Y cells [5]): No significant effect

**Q.** For `C=C(C)[C@@H]1CCC(C)=C[C@H]1c1c(O)cc(CCC)cc1O` [CBDV, cannabidivarin], which “nitrite production in Aβ-stimulated C6 cells” value (Aβ-stimulated C6 cells [1]) is on record?
**A.** significantly reduced

**Q.** And the “Aβ-stimulated C6 cell viability (cell proliferation, MTT)” value (Aβ-stimulated C6 cells [2]; 10^−8 to 10^−6 M)?
**A.** significantly inhibited cell proliferation

**Q.** And the “iNOS mRNA transcription in Aβ-stimulated C6 cells” value (iNOS [8])?
**A.** significant reduction of mRNA transcription

**Q.** What about the “Aβ-induced SH-SY5Y cell death (cell viability, MTT)” value (SH-SY5Y cells [3]; 10^−9 to 10^−6 M) of the same molecule?
**A.** able to prevent

**Q.** What about the TNF-alpha protein expression (TNF-alpha [9]) of the same molecule?
**A.** significant reduction

**Q.** And the COX2 protein expression (COX2)?
**A.** significant reduction

**Q.** What about the iNOS protein expression (iNOS [10]) of the same molecule?
**A.** significant reduction

**Q.** And the “TNF-alpha release in the supernatant of cells” value (TNF-alpha [11])?
**A.** significantly reduced

**Q.** And the Bcl2 protein expression (Bcl2)?
**A.** significantly restored

**Q.** What about the “Aβ SH-SY5Y cell death (viability, MTT/formazan test)” value (SH-SY5Y cells [4]) of the same molecule?
**A.** able to prevent

**Q.** What about the “Aβ induced SH-SY5Y cell death” value (SH-SY5Y cells [5]) of the same molecule?
**A.** able to prevent

**Q.** For `C=C(C)[C@@H]1CCC(C)=C[C@H]1c1c(O)cc(CCC)c(C(=O)O)c1O` [CBDVA, cannabidivarin acid], which “Aβ SH-SY5Y cell death (viability, MTT/formazan test)” value (SH-SY5Y cells [4]) is on record?
**A.** able to prevent

**Q.** And the “Aβ induced SH-SY5Y cell death” value (SH-SY5Y cells [5])?
**A.** able to prevent

**Q.** With `CCCCCc1cc(O)c(C/C=C(\C)CCC=C(C)C)c(O)c1` [CBG, cannabigerol, reference compound] as the molecule, how does the “nitrite production in Aβ-stimulated C6 cells” value (Aβ-stimulated C6 cells [1]) read?
**A.** had no effect

**Q.** And the “Aβ-stimulated C6 cell viability (cell proliferation, MTT)” value (Aβ-stimulated C6 cells [2]; 10^−9 to 10^−6 M)?
**A.** had no effect

**Q.** And the “Aβ-induced SH-SY5Y cell death (cell viability, MTT)” value (SH-SY5Y cells [3]; 10^−9 to 10^−6 M)?
**A.** had no effect

**Q.** For `CCCCCc1cc(O)c2c(c1)OC(C)(C)[C@@H]1CCC(C)=C[C@@H]21` [THC, tetrahydrocannabinol], which “prevention of glutamate toxicity” value [6] is on record?
**A.** could be prevented to some extent

**Q.** With `CCCc1cc2c(c(O)c1C(=O)O)[C@@H]1C=C(C)CC[C@H]1C(C)(C)O2` [THCVA] as the molecule, how does the “Aβ SH-SY5Y cell death (viability, MTT/formazan test)” value (SH-SY5Y cells [4]) read?
**A.** had no effect

**Q.** What about the “Aβ induced SH-SY5Y cell death” value (SH-SY5Y cells [5]) of the same molecule?
**A.** No significant effect
